Laboratory results from PubChem BioAssay (NCI).
Values joined by “and” are separate entries in the source; they are usually repeats but may differ in a detail not shown here. Equal values may be shown once.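 Five compound concentrations were applied to cells in 96-well plates for 48 hours; endpoints were derived by simple linear interpolation of the resulting dose-response curve. GI50 is the concentration that inhibits growth by half. TGI is the concentration that stops growth completely.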

How the values were obtained:
Experiment in all cases: inhibition of tumour cell growth, NCI panel, 48 h
MCF7 breast = tested on: MCF7 breast
MDA-MB-435 = tested on: MDA-MB-435
M19-MEL melanoma = tested on: M19-MEL melanoma
KM20L2 colon = tested on: KM20L2 colon
MDA-N = tested on: MDA-N
DMS 273 small cell lung = tested on: DMS 273 small cell lung
DLD-1 colon = tested on: DLD-1 colon
RXF-631 renal = tested on: RXF-631 renal
XF 498 CNS = tested on: XF 498 CNS

| SMILES | GI50 (MCF7 breast) | TGI (MCF7 breast) | GI50 (MDA-MB-435) | TGI (MDA-MB-435) | TGI (M19-MEL melanoma) [µM] | TGI (DMS 273 small cell lung) [µM] | further results |
| --- | --- | --- | --- | --- | --- | --- | --- |
| N#Cc1ccc(O)c(C2=NCC(c3cccc(Oc4ccccc4)c3)O2)c1 (configuration not stated) | 0.792 µM | 15.8 µM | 1.63 µM | > 100 µM |  |  |  |
| CCc1ccc(/C=C\c2cc(OC)c(OC)c(OC)c2)cc1 |  |  |  | 0.0066 µM | > 100 | 0.994 | GI50 (M19-MEL melanoma): 0.0392 µM; GI50 (KM20L2 colon): 0.0164 µM; TGI (KM20L2 colon): 0.125 µM and 0.032 µM; TGI (MDA-N): 0.00395 µM; GI50 (DLD-1 colon): 0.0358 µM; TGI (DLD-1 colon): 27.8 µM |
| COc1ccc(/C=C/CN(C)CCc2ccccc2)cc1OC |  |  |  |  | > 100 | > 100 | TGI (KM20L2 colon): > 100 µM |
| COc1cc2c(c(O)c1Br)C(=O)c1c(O)cc(C[C@H](C)O)cc1[C@H]2[C@H]1c2cc(C[C@H](C)O)cc(O)c2C(=O)c2c1cc(OC)c(Br)c2O | 2.44 µM and 3.58 µM | 67.5 µM and > 100 µM | 5.76 µM and 13.4 µM | 36.1 µM and 37.6 µM |  |  |  |
| Cc1ccc(NC(=O)c2cccc(N(C)C)c2)cc1NC(=O)c1ccc(O)cc1 | 52 µM | > 100 µM | 52.3 µM | > 100 µM |  |  |  |
| CCOC(=O)[C]1([Bi]([CH3])[CH3])N=NC(C(=O)OC)=C1C(=O)OC (configuration not stated) |  |  |  |  | 32.5 | 59.1 | GI50 (RXF-631 renal): 17.2 µM; TGI (RXF-631 renal): 31.4 µM; GI50 (M19-MEL melanoma): 17.6 µM; GI50 (DMS 273 small cell lung): 22.5 µM; GI50 (DLD-1 colon): 18.3 µM; TGI (DLD-1 colon): 32.5 µM |
| C[C@]12CC[C@H]3[C@@H](CC=C4C[C@@H](O)CC[C@@]43C)[C@@H]1CC[C@@H]2N(CCO)CCO |  | > 100 µM |  | > 100 µM |  |  | TGI (MDA-N): > 100 µM |
| O=C1CCC(=O)N2CCCCN12 |  |  |  |  | > 100 | > 100 | TGI (RXF-631 renal): > 100 µM; TGI (KM20L2 colon): > 100 µM; TGI (DLD-1 colon): > 100 µM |
| N#Cc1ccc(NC(=O)Nc2ccc(Oc3ccc(NC(=O)Nc4ccc(C#N)cc4)cc3)cc2)cc1 | 3.71 µM | > 100 µM | 17.1 µM | > 100 µM |  |  |  |
| Cc1ccc2c(c1)[n+]([O-])c(N)n[n+]2[O-] |  | > 100 µM |  | > 100 µM |  |  | TGI (MDA-N): > 100 µM |
| CCCn1cnc2c(SCc3ccccc3Cl)nc(N)nc21 | 38.6 µM | > 100 µM | 13.6 µM | 37 µM |  |  |  |
| O/N=C/C1c2ccccc2-c2ccccc21 |  | 33.7 µM |  | 34.3 µM |  |  | TGI (MDA-N): 31.9 µM |
| O=C1O[C@@H](c2ccc3c(c2)OCO3)C2C(=O)O[C@@H](c3ccc4c(c3)OCO4)C12 (some centres not stated) |  |  |  |  | > 100 | > 100 | TGI (RXF-631 renal): > 100 µM; TGI (KM20L2 colon): > 100 µM; TGI (XF 498 CNS): > 100 µM |
| COc1ccc(-c2cnnc3c(-c4cccc(C(F)(F)F)c4)cnn23)cc1 | > 100 µM | > 100 µM | 5.04 µM | > 100 µM |  |  |  |
| CC[C@]1(O)C[C@@H]2CN(CCc3c([nH]c4ccccc34)[C@@](C(=O)OC)(c3cc4c(cc3OC)N(C)[C@H]3[C@@](O)(C(=O)OC)[C@H](OC(C)=O)[C@]5(CC)C=CCN6CC[C@]43[C@@H]65)C2)C1 | < 0.01 µM | 32.3 µM | < 0.01 µM | < 0.01 µM |  |  |  |
| COc1cc(C2=NOC(c3cc(OC)c(OC)c(OC)c3)C2)ccc1OCCCCOc1cc2c(cc1OC)C(=O)N1CCC[C@H]1C=N2 (some centres not stated) | 0.255 µM | 24.4 µM | 0.179 µM | 0.371 µM |  |  |  |
| O=C(N/N=C/c1ccccc1O)c1ccccc1Nc1ccnc(C(F)(F)F)c1 | 0.35 µM | 29.2 µM | 1.37 µM | > 100 µM |  |  |  |

| SMILES | GI50 (MCF7 breast) | TGI (MCF7 breast) | GI50 (MDA-MB-435) | TGI (MDA-MB-435) | TGI (M19-MEL melanoma) [µM] | TGI (DMS 273 small cell lung) [µM] | further results |
| --- | --- | --- | --- | --- | --- | --- | --- |
| O=C(/C=C/c1c(O)ccc2ccccc12)c1cccc(O)c1 |  |  |  |  | 33.3 | > 100 | TGI (KM20L2 colon): > 100 µM; TGI (XF 498 CNS): > 100 µM; TGI (DLD-1 colon): > 100 µM |
| CC[C@@H]1CN(C)[C@H]2Cc3c([nH]c4ccccc34)C(=O)C[C@H]1C2C(=O)OC (some centres not stated) |  | > 100 µM |  | > 100 µM |  |  | TGI (MDA-N): > 100 µM |
| CC(C)(C)OC(=O)N1CCc2c(sc3ncnc(N/N=C/c4cccc5ccccc45)c23)C1 | 3.14 µM | > 100 µM | 2.47 µM | 7.31 µM |  |  |  |
| Oc1ccc(CN2CCC(N3CCCCC3)CC2)c2cccnc12 | 21.5 µM | > 100 µM | 4.63 µM | > 100 µM |  |  |  |
| CS(=O)(=O)c1ccc([C@H]2O[C@@H](CO)C[C@]2(O)c2ccc(S(C)(=O)=O)cc2)cc1 | > 100 µM | > 100 µM | > 100 µM | > 100 µM |  |  |  |
| CCOc1cc2c(Cl)ncnc2c(OCC)c1OCC | 2.3 µM | 7.55 µM | 6.06 µM | 21.2 µM |  |  |  |
| NC(=O)C(=O)N/N=C(\CC1(O)C(=O)Nc2ccccc21)c1ccc2ccccc2c1 (configuration not stated) |  |  |  |  | 65.6 | 80.5 | TGI (XF 498 CNS): 51.3 µM; TGI (DLD-1 colon): > 100 µM |
| CC(=O)CNC(=O)OC(C)(C)C |  |  |  |  | > 100 | > 100 | TGI (KM20L2 colon): > 100 µM; TGI (XF 498 CNS): > 100 µM; TGI (DLD-1 colon): > 100 µM |
| CCN(CC)c1ccc(/C=C/c2ccc3cc(C)ccc3[n+]2CC)cc1 | 0.0773 µM | 3.26 µM | 0.113 µM | 1.28 µM |  |  |  |
| FC(F)(F)c1cccc(Nc2nccc(-c3cnn4nc(-c5ccccc5)ccc34)n2)c1 | 6.82 µM | > 25 µM | 10.4 µM | > 25 µM |  |  |  |
| O=C(O)CNS(=O)(=O)c1ccc(NCc2ccccc2)cc1 |  |  |  |  | > 100 | > 100 | TGI (KM20L2 colon): > 100 µM; TGI (XF 498 CNS): > 100 µM; TGI (DLD-1 colon): > 100 µM |
| COC(=O)C1Cc2c(n(Cc3ccccc3)c3ccccc23)C(CCC(=O)O)N1C(C)C (configuration not stated) |  |  |  |  | > 100 | > 100 | TGI (RXF-631 renal): > 100 µM; TGI (KM20L2 colon): > 100 µM; TGI (DLD-1 colon): > 100 µM |
| COC(=O)[C@]12CC[C@@H](C)[C@H](C)[C@@H]1C1=CC[C@@H]3[C@@]4(C)C/C(=N\O)[C@H](O)[C@@]5(C)COC(=C45)C[C@@]3(C)[C@]1(C)CC2 | 3.5 µM | 15.3 µM | 8.28 µM | 22.2 µM |  |  |  |
| COc1cc(C2NC(=O)c3ccccc3N2)ccc1OCCCCCOc1c(OC)cc(C2=NOC(c3cc(OC)c(OC)c(OC)c3)C2)cc1OC (configuration not stated) | 0.356 µM | > 100 µM | 0.499 µM | > 100 µM |  |  |  |
| CSC(C1c2ccccc2N(c2ccc(C)cc2)C2=NC(=O)N(C)C(=O)C21Cl)S(=O)(=O)c1ccc(C)cc1 (configuration not stated) |  |  |  |  | 69.2 | 47.9 | TGI (KM20L2 colon): 48.4 µM; TGI (XF 498 CNS): 65.2 µM; TGI (DLD-1 colon): 33.5 µM |
| O=C1Nc2c(C(F)(F)F)cccc2[C@]1(c1ccc(O)cc1)c1ccc(OC(F)(F)F)cc1 | 4.05 µM | 16.9 µM | 13.6 µM | 26.6 µM |  |  |  |
| Nc1nc(Cl)c2ncn(Cc3ccc(C45CC6CC(CC(C6)C4)C5)c(O)c3)c2n1 | 3.14 µM | 13 µM | 5.14 µM | 23.2 µM |  |  |  |
